Measurements as given in US20230115350A1 (Cedilla Therapeutics, Inc., priority 2021, published 2023).

Columns and labels:
[1] = target: TEAD1 protein (YAP Binding Domain) (Homo sapiens, UniProt P28347); experiment: TEAD1 lipid pocket compound displacement assay (TR-FRET, Cy5-probe); conditions: 60 minutes incubation at room temperature; TR-FRET 665 nm/620 nm; read-out: CDA IC50
Protocol: Compound Displacement Assay.
A TEAD1 lipid pocket displacement assay was carried out according to the following protocol. Purified His-tagged TEAD1 protein (YAP Binding Domain) was pre-mixed with a Cy5-probe (Cy5-conjugated to a small molecule that binds in the TEAD1 lipid pocket) and Terbium-labeled anti-His antibody (Cisbio Cat 61HI2TLB). The binding of the Cy5-probe to anti-His-Tb/His-tag TEAD1 complex yielded a TR-FRET signal. […] After 60 minutes incubation at room temperature of compounds with the His-TEAD1/anti-His-Tb/Cy5-probe complex, the plate was read on a plate reader (BMG ClarioStar Cat 430-1300) using TR-FRET mode with wavelengths of 665 nm/620 nm. The potency of compounds as TEAD1 lipid pocket binders was determined by IC50 value generated using a non-linear 4 parameter curve fit.

NCI-H226 = experiment: 72H TEAD Proliferation Assay (Cell Titer-Glo 2.0); format: cell-based; conditions: Homo sapiens, NCI-H226, 72 h, CTG 2.0, cell line not given
Protocol: The effect of TEAD inhibition on cell proliferation was assayed using Cell Titer Glo (CTG) 2.0 to measure response in mesothelioma cell lines NCI-H226 (ATCC, #CRL-5826) and NCI-H28 (ATCC, #CRL-5820).
The 72H TEAD Proliferation assay utilizes Cell Titer-Glo 2.0 (Promega, #G9243) to measure the proliferation of cells in the presence or absence of compound. Cell Titer-Glo 2.0 determines the amount of viable cells by quantifying ATP (an indication of metabolically active cells). It utilizes the conversion of Luciferin to Oxyluciferin and a luminescent signal with the use of ATP to report the quantity of viable cells in culture. Within cells that are continually growing, ATP is being synthesized to meet their metabolic demands, meanwhile the opposite is true for cells that are dying or slowing down their proliferation and either no longer using ATP or are using less, respectively. The NF2-deficient NCI-H226 has been genetically validated as a cell line that is sensitive to TEAD inhibition. The NF2-wild type NCI-H28 has been genetically validated as a cell line that is not sensitive to TEAD inhibition and grows independently of TEAD activity.
Compounds were screened against the responsive NCI-H226 cell line to assess the compounds' ability to inhibit TEAD and cell growth. Compounds were also screened against the non-responsive NCI-H28 cell line to ascertain whether the inhibition of cell growth was due to inhibition of the target TEAD or whether the inhibition was due to off-target cytotoxicity.
1) Assay ready plates (ARPs) were prepared by Echo acoustic liquid handler. For each compound, duplicate of 10-point half-log dilution series were dispensed in a 384-well microplate (Corning 3571).
5) NCI-H226 or NCI-H28 cells were harvested from culture in Assay Medium 1 and the multidrop Combi reagent dispenser was used to seed cells at 500 cells per 50 ul in each well of the ARPs and one Corning 3571 plate without compounds for Time 0 (TO) readout.
6) The TO plate was incubated for 2 hours at 37° C. with 5% CO2 to allow cells to settle, then the CTG Assay was performed.
7) All ARPs were incubated for 72 hours at 37° C. with 5% CO2, then the CTG Assay was performed for Time 72H (T72) readout.
8) CTG Assay: Bravo liquid handler (Agilent) was used to add 25 ul of CTG 2.0 to all columns of the plate except for Column 24, which was used to subtract out the background. After CTG addition, plates were placed on shaker at 800 RPM for 15 minutes at room temperature and kept in the dark. Luminescence was measured using EnVision multilabel plate reader with ultra-sensitive detection module.
9) Data Analysis: First background luminescence (no CTG wells) was subtracted from luminescence reading of all wells, then TO luminescence was subtracted from T72 luminescence. To compare anti-proliferative effect of compounds, GI50 was obtained by fitting dose response curves with nonlinear regression curve fit.

TEAD1 protein (YAP Binding Domain), sequence (P28347 209-426 limits assumed): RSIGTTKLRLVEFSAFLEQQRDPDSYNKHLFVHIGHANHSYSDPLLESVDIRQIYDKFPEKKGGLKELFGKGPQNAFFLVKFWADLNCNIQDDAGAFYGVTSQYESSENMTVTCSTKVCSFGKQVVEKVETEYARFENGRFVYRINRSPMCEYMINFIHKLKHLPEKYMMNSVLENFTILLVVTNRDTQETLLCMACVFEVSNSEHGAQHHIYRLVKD

SMILES | IC50 [1] | GI50 (NCI-H226)
CN(C)C/C=C/C(=O)Nc1ccc(OCc2cccc(F)c2)c(F)c1 [Compound 125, (E)-4-(dimethylamino)-N-(3-fluoro-4-((3-fluorobenzyl)oxy)phenyl)but-2-enamide] | > 2000 nM | > 3000 nM
C=CC(=O)Nc1ccc(-c2ccc(C(C)(C)C)cc2)c2ncccc12 [Compound 151, N-(8-(4-(tert-butyl)phenyl)quinolin-5-yl)acrylamide] | 250 to 500 nM | ≤ 250 nM
C=CC(=O)Nc1ccc(OCc2cccc(F)c2)c(C2CCCCC2)c1 [Compound 3, N-(3-cyclohexyl-4-((3-fluorobenzyl)oxy)phenyl)acrylamide] | 500 to 2000 nM | > 3000 nM
C=C(F)C(=O)Nc1ccc2c(c1)OC(c1cccc(C(F)(F)F)c1)O2 (centres unmarked) [Compound 148, 2-fluoro-N-(2-(3-(trifluoromethyl)phenyl)benzo[d][1,3]dioxol-5-yl)acrylamide] | 500 to 2000 nM | 250 to 1000 nM
C=CC(=O)Nc1ccc(OCc2cccc(F)c2)c(C)c1 [Compound 51, N-(4-((3-fluorobenzyl)oxy)-3-methylphenyl)acrylamide] | 250 to 500 nM | > 3000 nM
C=CC(=O)Nc1ccc(OCc2ccnc(C(F)(F)F)c2)c(F)c1 [Compound 116, N-(3-fluoro-4-((2-(trifluoromethyl)pyridin-4-yl)methoxy)phenyl)acrylamide] | 250 to 500 nM | 250 to 1000 nM
C=CC(=O)Nc1ccc(C2COc3ccccc3N2)c(F)c1 (centres unmarked) [Compound 121, N-(4-(3,4-dihydro-2H-benzo[b][1,4]oxazin-3-yl)-3-fluorophenyl)acrylamide] | 500 to 2000 nM | > 3000 nM
C=CC(=O)Nc1ccc(OCc2ccc(C#N)s2)c(F)c1 [Compound 63, N-(4-((5-cyanothiophen-2-yl)methoxy)-3-fluorophenyl)acrylamide] | 500 to 2000 nM | 1000 to 3000 nM
C=CC(=O)Nc1ccc(Oc2cccc(F)c2)c(F)c1 [Compound 106, N-(3-fluoro-4-(3-fluorophenoxy)phenyl)acrylamide] | ≤ 250 nM | > 3000 nM
C=CC(=O)Nc1ccc(OCc2cnc(C(F)(F)F)nc2)c(F)c1 [Compound 98, N-(3-fluoro-4-((2-(trifluoromethyl)pyrimidin-5-yl)methoxy)phenyl)acrylamide] | > 2000 nM | 1000 to 3000 nM
C=CC(=O)Nc1ccc(Oc2ccc(C(C)(C)C)cc2)c(F)c1 [Compound 111, N-(4-(4-(tert-butyl)phenoxy)-3-fluorophenyl)acrylamide] | ≤ 250 nM | 250 to 1000 nM
C=CC(=O)Nc1ccc(OCc2cccnc2Br)c(F)c1 [Compound 74, N-(4-((2-bromopyridin-3-yl)methoxy)-3-fluorophenyl)acrylamide] | > 2000 nM | > 3000 nM
C=CC(=O)Nc1ccc(Oc2ccc(F)cc2)c(F)c1 [Compound 107, N-(3-fluoro-4-(4-fluorophenoxy)phenyl)acrylamide] | ≤ 250 nM | 250 to 1000 nM
C=CC(=O)Nc1ccc(OCc2cccc(F)c2)c(F)c1 [Compound 100, N-(3-fluoro-4-((3-fluorobenzyl)oxy)phenyl)acrylamide] | 250 to 500 nM | > 3000 nM
C=CC(=O)Nc1ccc(OCc2cncc(C(F)(F)F)c2)c(C#N)c1 [Compound 41, N-(3-cyano-4-((5-(trifluoromethyl)pyridin-3-yl)methoxy)phenyl)acrylamide] | > 2000 nM | > 3000 nM
C=CC(=O)Nc1ccc(OCc2cc(F)ccc2Cl)c(F)c1 [Compound 78, N-(4-((2-chloro-5-fluorobenzyl)oxy)-3-fluorophenyl)acrylamide] | 500 to 2000 nM | > 3000 nM
C=CC(=O)Nc1ccc(OCc2cccc(C(F)(F)F)c2)c(C#N)c1 [Compound 38, N-(3-cyano-4-((3-(trifluoromethyl)benzyl)oxy)phenyl)acrylamide] | 500 to 2000 nM | 1000 to 3000 nM

SMILES | IC50 [1] | GI50 (NCI-H226)
C=CC(=O)Nc1ccc(OCC2CCOCC2)c(F)c1 [Compound 54, N-(3-fluoro-4-((tetrahydro-2H-pyran-4-yl)methoxy)phenyl)acrylamide] | > 2000 nM | 1000 to 3000 nM
C=CC(=O)Nc1ccc(OCc2csc3ccccc23)c(F)c1 [Compound 60, N-(4-(benzo[b]thiophen-3-ylmethoxy)-3-fluorophenyl)acrylamide] | 500 to 2000 nM | > 3000 nM
C=CC(=O)Nc1ccc2oc(CCCC(C)C)nc2c1F [Compound 141, N-(4-fluoro-2-(4-methylpentyl)benzo[d]oxazol-5-yl)acrylamide] | 250 to 500 nM | 250 to 1000 nM
C=CC(=O)Nc1ccc(OCC2CCC(F)(F)CC2)c2ccncc12 [Compound 19, N-(5-((4,4-difluorocyclohexyl)methoxy)isoquinolin-8-yl)acrylamide] | > 2000 nM | > 3000 nM
C=CC(=O)Nc1ccc(OCc2cccc(Cl)c2F)c(F)c1 [Compound 99, N-(4-((3-chloro-2-fluorobenzyl)oxy)-3-fluorophenyl)acrylamide] | ≤ 250 nM | > 3000 nM
C=CC(=O)Nc1ccc(COc2cccc(F)c2)c(F)c1 [Compound 28, N-(3-fluoro-4-((3-fluorophenoxy)methyl)phenyl)acrylamide] | 250 to 500 nM | 250 to 1000 nM
C=CC(=O)Nc1ccc(Nc2ccc(F)cc2)c(F)c1 [Compound 108, N-(3-fluoro-4-((4-fluorophenyl)amino)phenyl)acrylamide] | > 2000 nM | 250 to 1000 nM
C=CC(=O)Nc1cc2nc(CCC(C)C)oc2cc1F [Compound 132, N-(6-fluoro-2-isopentylbenzo[d]oxazol-5-yl)acrylamide] | 250 to 500 nM | ≤ 250 nM
C=CC(=O)Nc1ccc(OCc2cccc(CC)c2)c(F)c1 [Compound 26, N-(4-((3-ethylbenzyl)oxy)-3-fluorophenyl)acrylamide] | ≤ 250 nM | 250 to 1000 nM
C=CC(=O)Nc1ccc(NCC2CCC(F)(F)CC2)c(F)c1 [Compound 109, N-(4-(((4,4-difluorocyclohexyl)methyl)amino)-3-fluorophenyl)acrylamide] | 250 to 500 nM | 250 to 1000 nM
C=CC(=O)Nc1cc2nc(CC3CCC(F)(F)CC3)oc2cc1F [Compound 136, N-(2-((4,4-difluorocyclohexyl)methyl)-6-fluorobenzo[d]oxazol-5-yl)acrylamide] | 250 to 500 nM | 250 to 1000 nM
C=CC(=O)Nc1ccc(-c2ccc(C(F)(F)F)cc2)c2ncccc12 [Compound 150, N-(8-(4-(trifluoromethyl)phenyl)quinolin-5-yl)acrylamide] | ≤ 250 nM | ≤ 250 nM
C=CC(=O)Nc1ccc(OCc2ccc(F)c(F)c2)c(C#N)c1 [Compound 40, N-(3-cyano-4-((3,4-difluorobenzyl)oxy)phenyl)acrylamide] | 500 to 2000 nM | 1000 to 3000 nM
C=CC(=O)Nc1ccc(OCC2CCC(F)(F)CC2)c2ccccc12 [Compound 49, N-(4-((4,4-difluorocyclohexyl)methoxy)naphthalen-1-yl)acrylamide] | ≤ 250 nM | ≤ 250 nM
C=CC(=O)Nc1ccc(OCCC(F)(F)F)c(F)c1 [Compound 103, N-(3-fluoro-4-(3,3,3-trifluoropropoxy)phenyl)acrylamide] | > 2000 nM | 1000 to 3000 nM
C=CC(=O)Nc1ccc(OCC2CCC(F)(F)CC2)c2ocnc12 [Compound 21, N-(7-((4,4-difluorocyclohexyl)methoxy)benzo[d]oxazol-4-yl)acrylamide] | ≤ 250 nM | ≤ 250 nM
C=CC(=O)Nc1ccc(OC(C)c2cccc(F)c2)c(F)c1 (centres unmarked) [Compound 124, N-(3-fluoro-4-(1-(3-fluorophenyl)ethoxy)phenyl)acrylamide] | 250 to 500 nM | > 3000 nM
